The supplement of paper PMC10878532, “Sperm Toolbox—A selection of small molecules to study human spermatozoa” (PLOS ONE, 2024)
Where a name gives a salt, the structure may show the parent alone.

Assays:
[1] = system: human spermatozoa; assay: acrosome-reacted (PNA+) sperm after agonist cocktail, percent change vs DMSO (capacitating); higher = more of the measured sperm population than DMSO, for viability, fewer PI-positive (dead) cells than DMSO; details: incubation time: 3h, capacitating + agonist cocktail 1h
[2] = system: human spermatozoa; assay: progressively motile sperm, percent change vs DMSO (non-capacitating); higher = more of the measured sperm population than DMSO, for viability, fewer PI-positive (dead) cells than DMSO; extreme values may be limits of the assay
[3] = system: HepG2; assay: HepG2 toxicity (resazurin), effect normalised to DMSO (DMSO = 0); higher = more features changed / larger toxic effect; details: incubation time: 70h incubation
[4] = system: human spermatozoa; assay: viability fold change, 1 - (PI-positive fraction / DMSO median); higher = more of the measured sperm population than DMSO, for viability, fewer PI-positive (dead) cells than DMSO; details: incubation time: 3h, non-capacitating
[5] = system: HeLa; assay: Cell Painting percent induction (share of features beyond 2 z-scores vs DMSO); higher = more features changed / larger toxic effect; extreme values may be limits of the assay; details: incubation time: 24h incubation
[6] = system: human spermatozoa; assay: hyperactivated motile sperm, percent change vs DMSO (capacitating); higher = more of the measured sperm population than DMSO, for viability, fewer PI-positive (dead) cells than DMSO; details: incubation time: 30min incubation
[7] = system: human spermatozoa; assay: progressively motile sperm, percent change vs DMSO (capacitating); higher = more of the measured sperm population than DMSO, for viability, fewer PI-positive (dead) cells than DMSO; details: incubation time: 30min incubation
[8] = system: human spermatozoa; assay: total motile sperm, percent change vs DMSO (non-capacitating); higher = more of the measured sperm population than DMSO, for viability, fewer PI-positive (dead) cells than DMSO
[9] = system: HeLa; assay: HeLa toxicity: nuclei-count effect normalised to DMSO (DMSO = 0); higher = more features changed / larger toxic effect; details: incubation time: 24h incubation
[10] = system: human spermatozoa; assay: change in acrosome-reacted (PNA+) sperm vs DMSO, no agonist (capacitating); higher = more of the measured sperm population than DMSO, for viability, fewer PI-positive (dead) cells than DMSO; details: incubation time: 3h
[11] = incubation time: 10min incubation, 9.99 µM
[12] = incubation time: 10min incubation, 29.9 µM
[13] = incubation time: 3h incubation, 9.99 µM
[14] = incubation time: 3h incubation, 29.9 µM
[15] = incubation time: 6h incubation, 9.99 µM
[16] = incubation time: 6h incubation, 29.9 µM
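Wherever progressively motile sperm, percent change vs DMSO (non-capacitating) is given: pooled live human sperm from at least 3 donors, tracked by automated microscopy in 0.5 s time-lapse movies, compounds at 10 and 30 µM, versus median of 16 DMSO wells per plate.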
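Wherever total motile sperm, percent change vs DMSO (non-capacitating) is given: sperm pooled from at least 3 donors, tracked in 0.5 s time-lapse movies by automated microscopy after 10 min, 3 h or 6 h with compound at 10 or 30 µM.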

SMILES	acrosome-reacted ([1]; 9.99 µM) [%]	acrosome-reacted ([1]; 29.9 µM) [%]	progressively motile sperm [2, 11] [%]	progressively motile sperm [2, 12] [%]	progressively motile sperm [2, 13] [%]	progressively motile sperm [2, 14] [%]	progressively motile sperm [2, 15] [%]	progressively motile sperm [2, 16] [%]	HepG2 toxicity ([3]; 10 µM) [%]	HepG2 toxicity ([3]; 30 µM) [%]	viability fold change ([4]; 9.99 µM)	viability fold change ([4]; 29.9 µM)	Cell Painting percent induction ([5]; 9.99 µM) [%]	Cell Painting percent induction ([5]; 29.9 µM) [%]	hyperactivated motile sperm ([6]; 9.99 µM) [%]	hyperactivated motile sperm ([6]; 29.9 µM) [%]	progressively motile sperm ([7]; 9.99 µM) [%]	progressively motile sperm ([7]; 29.9 µM) [%]	total motile sperm [8, 11] [%]	total motile sperm [8, 12] [%]	total motile sperm [8, 13] [%]	total motile sperm [8, 14] [%]	total motile sperm [8, 15] [%]	total motile sperm [8, 16] [%]	HeLa toxicity: nuclei-count effect normalised ([9]; 9.99 µM) [%]	HeLa toxicity: nuclei-count effect normalised ([9]; 29.9 µM) [%]	change in acrosome-reacted ([10]; 9.99 µM) [%]	change in acrosome-reacted ([10]; 29.9 µM) [%]
Nc1ccc(-c2ccc3ncc4ccc(=O)n(-c5cccc(C(F)(F)F)c5)c4c3c2)cn1 [Torin 2]	116	129	38.8	34.7	76.3	50.7	89.8	47.4	97.2	96	-0.979	-0.723	4.68	29.7	180	16.9	7.66	15.1	-0.268	1.3	-8.49	-9.72	-12.1	-16.1	83.4	96.5	1.71	1.79
CCCCN1C[C@@H](O)[C@H](O)[C@H](O)[C@@H]1CO [Miglustat]	-0.571	-6.96	-0.816	3.26	9.63	8.04	8.15	7.52	5.75	-4.38	-0.2	0.248	0	0	12.2	2.46	5.12	9.04	-1.47	0.804	-1.56	-0.192	-5.48	-3.6	0.0668	-3.87	-0.0821	-0.0793
CCCCC(CC)C/N=C(\N)N/C(N)=N/CCCCCC/N=C(\N)N/C(N)=N/CC(CC)CCCC (stereo unspecified) [Alexidine dihydrochloride]	148	214	-63.3	-99.9	-99.9	-100	-100	-100	89.8	103	-2.59	-3.31	4.11	13.2	-81.6	-86.5	-95.3	-100	-25.4	-91.3	-92.5	-89.6	-92.8	-89.2	82.5	57.3	65.4	86.5
C[C@@H]1O[C@@H](O[C@H]2C[C@@H](O)[C@]3(CO)[C@H]4[C@H](O)C[C@]5(C)[C@@H](C6=CC(=O)OC6)CC[C@]5(O)[C@@H]4CC[C@]3(O)C2)[C@H](O)[C@H](O)[C@H]1O [Ouabain]									94.6	93.2			0.54	0.324											72.1	70.1		
COc1ccc2nc([S@@+]([O-])Cc3ncc(C)c(OC)c3C)[nH]c2c1 [Esomeprazole]	25.4	50.1	11.4	21.1	37	43.5	50.4	35.7	-1.96	4.42	0.0722	-0.272	0	0	72.4	123	15.2	19	-4.34	-3.89	-8.86	-9.65	-8.85	-15.2	-3.81	-3.61	0.624	1.41
NC(=O)Nc1cc(-c2cccc(F)c2)sc1C(=O)N[C@H]1CCCNC1 [AZD 7762 hydrochloride]	-44.6	-44	-49.3	-57.6	-35.4	-48.7	-30.8	-49.2	101	101	-0.829	-1.22	17	11	-57.9	-72	-19.7	-30.7	-11.3	-17.4	-10.7	-22.4	-13.2	-23.1	80.1	76.8	0.07	1.03
CNS(=O)(=O)c1ccccc1Nc1nc(Nc2ccc(C3CCN(C)CC3)cc2OC)ncc1Cl [Compound 19]	-19.8	31.9	-91.3	-92.3	-90.1	-93.7	-90.5	-96	103	103	-0.353	-1.11	51.7	53.2	-80.3	-81.6	-48.6	-61.5	-56.4	-58.2	-66.7	-69.7	-63.1	-74.1	98.9	97.1	1.02	5.53
CCS(=O)(=O)Nc1ccc2c(c1)/C(=C(/Nc1ccc(CN3CCCCC3)cc1)c1ccccc1)C(=O)N2 [Hesperadin hydrochloride]	-34.6	-37.5	-47.3	-48.7	-44.8	-57.8	-44.4	-55.4			-0.123	-0.0637	19.1	29.9	-68.7	-76	-13.4	-15.1	-7.06	-8.13	-15.5	-16.9	-15.3	-19	84.4	96.7	0.15	1.01
CC(=O)N1CCC(C(=O)N(CCCN2CCN(Cc3ccc(F)cc3)CC2)c2ccc(C)c(Cl)c2)CC1 [B07 hydrochloride]	-7.75	-16.6	-0.531	-2.62	3.74	-2.22	13.9	-0.382			-0.0249	-0.378	0	0	4.68	-29.9	2.3	5.54	-3.45	-1.62	-0.778	-4.4	-2.31	-8.75	-8.22	-2.4	-0.33	-0.655
CC(C)(C)c1ccc(S(=O)(=O)Nc2cnc3[nH]c(C(=O)N[C@H]4CCC[C@H]4O)c(-c4ccccc4)c3c2)cc1	-55.5	-40.6	-18.5	-14	-13	-11.7	-9.71	-14.5	3.81	16.8	0.0771	0.0653			-89.9	-90.6	-49.7	-49.4	-3.11	0.824	2.99	-0.471	-0.468	-0.141			0.406	0.723
c1cnc2c(c1)ccc1cccnc12 [Phenanthroline]	8.37	9.76	-0.0696	-0.36	1.8	-21.2	-1.34	-23.3			0.0432	-0.258	1.08	1.15	18.4	17.2	10.3	16.3	-2.32	-4.26	3.46	-8.46	-1.8	-11.3	46	43	0.27	0.435
CC(C)(C)c1ccc(S(=O)(=O)Nc2ccc(OC(F)(F)F)c(F)c2-c2ccc(C(=O)O)c3ncccc23)cc1F [CCR6 inhibitor]	4.58	-1.79	4.23	5.16	7.86	2.54	7.11	-7.05	2.54	-7.66	-0.213	-0.279			12.5	-21	3.94	10.4	2.36	5.45	-5.06	-0.0893	-5.81	-4.71			0.627	0.716
N=C(N)Nc1nc2ccccc2[nH]1 [2-Guanidinobenzimidazole]	-0.796	-2.33	3.14	0.263	13	14	18.7	6.54	7.28	-2.48	-1.37	-0.849	0	0.036	-8.85	-1.69	0.502	7.48	0.879	-2.57	1.34	-1.87	1.24	-6.01	1.07	-4.21		
Cc1ccc(S(=O)(=O)c2c(N)n(CC(O)c3ccc([N+](=O)[O-])cc3)c3nc4ccccc4nc23)cc1 (stereo unspecified)	22.3	49.7	8.38	7.14	40.6	20.1	45.4	24.6			-0.179	0.2	0.072	0.648	2.52	-33	7.62	16.1	1.39	2.71	1.22	-9.75	-1.06	-11.3	9.49	44.6	0.985	1.51
O=C(N1CCCCC1)N1CCCCC1Cc1ccccc1 (stereo unspecified)	6.47	7.82	-0.571	5.81	19.1	18.1	17.3	16.4	5.44	-4.3	0.104	-0.0769	0	0	6.11	3.93	9.35	20.1	-0.235	4.54	-3.63	0.0877	-4.64	-4.36	-3.81	-5.74		
CO[C@H]1[C@@H](OC)C[C@H](C)[C@@H](OC)C2=CC(=O)C=C(NC(=O)/C(C)=C/C=C/[C@H](OC)[C@@H](OC(N)=O)/C(C)=C/[C@@H]1C)C2=O [Herbimycin a]			11.6	-9.27	-37.6	-100	-46.3	-100	101	103	-1.59	-1.04	0.216	0	-22.2	-70.4	3.33	-50.9	7.08	3.19	-13.6	-85.1	-11.7	-85	23.2	37.9		
CCCCCCOC(=O)[C@]1(O)C[C@@H]2O[C@@]1(C)n1c3ccccc3c3c4c(c5c6ccccc6n2c5c31)C(=O)NC4 [KT 5720]	0.89	0.941	-3.28	-15.1	16.6	6.24	29.8	17.9			-0.0644	-0.13	0	0.072	5.63	-20.1	2.73	-4.6	-0.664	-5.21	5.89	-0.934	5.3	0.422	-2.2	9.55	1.66	0.54
NC(=O)c1cccnc1 [Nicotinamid]			15.4	14.2	-10.7	3.29	0.762	-3.22			-0.835	-0.522			16	5.44	3.35	13.2	0.928	6.07	-8.41	-0.358	-0.499	0.662				
